Test results from patent publication US7229826B2, “Process for ex vivo formation of mammalian bone and uses thereof” (The Regents of the University of Michigan, priority 1999, dated 2007).
Entries after “also recorded” stand apart in the source; their conditions may differ.

Key:
Assay type in all cases: cell-based
[1] = tested on: human osteogenic cells (MG63, HBPC, primary osteoblasts); experiment: Inhibition of cell condensation (bone cell spheroid and microspicule formation); settings: EGTA 0.5 mM; puromycin 5 μM; spheroid-forming conditions with TGF-β1
Method: Inhibition of Cell Condensation. Cells were cultured in serum-free media under conditions that establish bone cell spheroids (as described above) in the presence of neutralizing antibodies to α2, α3, and/or β1 integrins, at 10 μg/ml. Isotype-specific inappropriate antibodies served as negative controls. Antibodies were added every second day over a seven-day culture period. EGTA (0.5 mM) was also used inhibition of cell aggregation, as was puromycin (5 μM).

[2] = tested on: murine LTBMC (unfractionated bone marrow); experiment: Murine long-term bone marrow culture (LTBMC) osteogenesis, von Kossa / Masson positive foci and microspicules
From the text: The inventors therefore established murine LTBMC and probed their capacity to express markers of osteogenesis. […] Additionally, they have developed a smaller culture volume system (dropping from 100 -mm tissue culture dishes to 35 mm ones) to allow better utilization of human osteoblasts. Using this modification on murine cells (which respond less robustly to TGF-β as a solitary cytokine), the inventors examined the role of IGF in modulating this process.
Endothelial cells are important sources of cytokines for both hematopoietic and osteogenesis cells. An important regulator of endothelial cells, VEGF, is known to affect both endothelial cells, and bone cell development (although it is not clear if the latter is a direct effect).

[3] = tested on: primary osteoblasts isolated from human bone; experiment: Collagen synthesis by 3H-proline incorporation, delayed reduction electrophoresis; settings: densitometry
Method: Collagen Synthesis. At the times indicated, bone cell-spheroids were washed with prolene-free DMEM containing 1% ITS, and incubated for 12 hours in the presence of ITS^+ and 100 μCi/ml (^3H) Proline (Amersham). Cells and medium were harvested, and cell lysates were made. Protein content was estimated by the BCA method (Smith, 1985), using a kit from Pierce (Rockford, Ill.). The cell lysates were lyophilized and extracted overnight at 4° C. with 0.5M acetic acid containing 100 μg/ml pepsin (Sigma Chemical Co., St. Louis, Mo.). Samples were dried, dissolved in non-reducing SDS-gel buffer and analyzed on a 5% SDS-gel. The αl(1) and αl(111) components were resolved by delayed reduction electrophoresis (Sykes, 1976). The gels were treated with Amplify (Amersham, England), and the radiolabeled collagen visualized by autoradiography. The percentage of Type I collagen was determined using the following formula (Franceschi, 1988).

[4] = tested on: human osteogenic cells (MG63, HBPC, primary osteoblasts); experiment: Western analysis of bone protein expression in spheroids; settings: each osteogenic cell type; versus serum-free cells in the absence of TGF-β1
Method: Western Analysis. The procedure used was essentially that of Towbin (1979). Samples were run on a 10% SDS-PAGE. The electrophoretically resolved proteins were transferred to nitrocellulose (Schleicher & Schuell; Keene, N.H.) and the nonspecific binding sites blocked using 5% Skim milk in TBST (10 mM Tris, 0.15M NaCl, 0.05% Tween 20, pH 7.5). The nitrocellulose membrane was incubated with primary antibodies: anti-Osteonectin (ON), anti-alkaline phosphatase, (both generous gifts of Dr. Kenneth Mann, University of Vermont) or anti-Type I collagen (Collaborative); each at 10 μg/ml in TBST) for 1 hour at room temperature, washed with TBST and treated with the secondary antibody (anti-mouse IgG-HRP conjugated; Amersham) at a 1:1000 dilution in the same buffer. The HRP/anitbody-labeled proteins were visualized by enhanced chemilluminescence (Pierce).

[5] = tested on: human osteogenic cells (MG63, HBPC, primary osteoblasts); experiment: TGF-β1-induced bone cell spheroid formation in serum-free culture; settings: 200 pM TGF-β1, serum-free, immediately following trypsinization
Method: Culture of Osteogenic Cells and Cell Lines. Osteogenic cell lines such as human osteosarcoma cells (MG63) were cultured in RPMI 1640 (Gibco, Grand Island. N.Y.) containing 2 mM L-Glutamine, sodium pyruvate and 10% Fetal Calf Serun (FCS) (Hyclone Labs Inc., Logan, Utah). For bone cell spheroid formation, cells were grown to confluency, trypsinized, washed two times in RPMI, and immediately cultured in serum-free media containing 1% ITS+ (Collaborative Research Inc.) and 200 pM TGF-β1 (Collaborative). Unless otherwise noted, cells are plated at a density of about 10^3 to 10^6 cells/cm^2 in tissue culture dishes. Control cells were allowed to adhere to plastic for 3–4 hours in serum containing medium following trypsinization. This adherent cell layer was then washed twice with serum-free medium and cultured as above with or without TGF-β1.
Bone Cell-Spheroid Formation. In order to induce three-dimensional cell development (i.e., bone cell spheroids), cells were trypsinized as routinely performed for passage, the trypsin inactivated by serum addition, the cells washed three times, and immediately cultures in RPMI/ITS^+ (see above) containing 200 pM TGF-β1, Control cells were allowed to adhere to plastic for 3–4 hours in serum containing medium following trypsinization. This adherent cell layer was then washed twice with serum-free medium and cultured as above with or without TGF-β1.

Q: For `O=C(O)CN(CCOCCOCCN(CC(=O)O)CC(=O)O)CC(=O)O` [EGTA], which “spheroid formation (effect in words)” value [1] is on record?
A: completely inhibited

Q: How did the “increase in number of von Kossa cellular foci” value ([2]; VEGF 10 ng/mL) turn out when VEGF was run?
A: 2.5 fold

Q: What about the “increase in number of collagen-positive and von Kossa-positive developmental foci per culture” value ([2]; VEGF 10 ng/mL added to LTBMC) of the same molecule?
A: 75–80%

Q: What about the “increase in number of microspicules per culture” value ([2]; VEGF 10 ng/mL, over the first three weeks of culture) of the same molecule?
A: ~5 fold

Q: “TGF-β1: multifunctional cytokine of the TGF-β family, osteogenic growth factor used at 200 pM (human) or 25 pM (murine)” was tested. Which “increase in collagen synthesis on TGF-β1-dependent spheroid formation” value [3] did it give?
A: two to three fold increase

Q: And the “expression of osteonectin and alkaline phosphatase” value [4]?
A: markedly increases

Q: And the “capacity to drive murine osteogenesis (individually)” value ([2]; TGF-b 25 pM, IGF 15 pM, each alone)?
A: little capacity

Q: And the “time to formation of three-dimensional spherical cellular condensates (cell spheroids)” value [5]?
A: 24 to 48 h

Q: For `COc1ccc(C[C@H](N)C(=O)N[C@H]2[C@@H](O)[C@H](n3cnc4c(N(C)C)ncnc43)O[C@@H]2CO)cc1` [puromycin], which “spheroid formation (effect in words)” value [1] is on record?
A: completely blocked; also recorded: completely inhibited
